Data: PMC1764434 (PLoS Clinical Trials, 2007)
“Also recorded” adds a separate entry of the source. Like-named read-outs stand apart in the source and are kept apart here.

Columns and labels:
[1] = Urinary excretion and renal clearance (24-hour urine collections, days 1-3)
[2] = system: CQ-resistant P. falciparum; settings: cited from earlier work
[3] = system: QT interval; assay: Effects on the QT interval (ECG and Holter recordings, Bazett correction); settings: for QTc interval, Baseline: before dosing
Method: The effects of the study drugs on the QT interval were assessed by comparing QT intervals before dosing with QT intervals 4 h after dosing, and at the 2 wk follow-up. […] QT intervals were measured manually and electronically (Rozinn Electronics, Glendale, New York, United States). […] Correction of the QT interval for heart rate (i.e., QTc) was performed using Bazett's formula [27].

[4] = cited from earlier work
[5] = system: animals; settings: preclinical studies; cited from earlier work
[6] = Blood pharmacokinetics after oral dosing (fluorescence HPLC, noncompartmental WinNonlin model); assay type: in vivo, human; settings: for Cmax / Vd/F / MRT / Tmax / half-life / AUC: human, whole blood; for Cmax: read-out: Cmax; for MRT: read-out: MRT (converted); for AUC: po
Method: Study drugs were administered in the GCRC on an empty stomach between 8 and 9 AM the morning after admission (after fasting for ≥ 10 h).

[7] = system: P. cynomolgi; settings: cited from earlier work
[8] = system: CQ-resistant P. falciparum; settings: CQ-resistant P. falciparum in the squirrel monkey; cited from earlier work
[9] = system: healthy volunteers; assay: Clinical adverse events (weekly diaries, blinded relatedness assessment), Phase I RCT; assay type: in vivo, human
Method: Adverse events (AEs) were recorded in weekly diaries provided to each volunteer. The relatedness of these AEs to the study drugs was assessed by two physicians (FM, CH) based on temporal association and biological plausibility using five categories: definitely not, unlikely, possibly, probably, and definitely related. The AEs reported in this manuscript include all AEs assessed as possibly, probably, or definitely related.
Quantitative data are presented as the mean ± standard deviation or as median and range, as appropriate. […] Due to a lack of normality, the nonparametric Mann-Whitney U test was used to compare independent samples; the Wilcoxon or Friedman test (whichever was appropriate) was used to compare repeated measures of the QTc interval. All statistical tests were two-sided with an α (significance level) of 0.05. Analyses were performed using the SPSS 11.0 statistical software (SPSS, Chicago, Illinois, United States). All analyses were based on allocation by intent-to-treat.

[10] = system: healthy volunteers; assay: Post-dose clinical and laboratory follow-up (hematology, chemistry, organ toxicity); assay type: in vivo, human
[11] = days 1-3, 1,750 mg AQ-13 / 1,500 mg CQ
[12] = 1,750 mg AQ-13, 1,500 mg CQ, mean ± SD
[13] = 600/700 mg AQ-13, 600 mg CQ, mean ± SD
[14] = 1750 mg, 1,750 mg oral over 3 d, median (range)
[15] = single oral 600 mg dose, median (range)
[16] = single oral 700 mg adjustment dose, median (range)
[17] = 1,500 mg CQ (n = 15) / 1,750 mg AQ-13 (n = 14)
[18] = 100, 300 mg doses, n = 16 per drug
[19] = 600/700 mg, AQ-13 n = 25, CQ n = 24
[20] = all doses combined, 63 volunteers per drug
[21] = 2 wk follow-up, individual participant

CCN(CC)CCCNc1ccnc2cc(Cl)ccc12 [AQ-13]
amount of unchanged drug recovered from 24 hour urine collections [1, 11]: 443 µmol
unchanged drug recovered from 24 hour urine collections, % of total oral dose [1, 11]: 8.4%
CL renal ([1]; human, urine and whole blood, po, 1750 mg): 55 mL/min
activity against resistant malaria parasites in vitro [2]: active against resistant malaria parasites
mean QTc prolongation after the first dose (day 1) ([3]; 1,500 mg CQ (first 600 mg dose) / 1,750 mg AQ-13 (first 700 mg dose)): 4 ms
additional QTc increase after the second dose (day 2) ([3]; 1,500 mg CQ / 1,750 mg AQ-13): 6 ms
QTc interval, Baseline ([3]; 1,750 mg AQ-13 (n = 13), 1,500 mg CQ (n = 14), mean ± SD): 397 ± 16 ms
QTc interval, 2 wk follow-up [3, 12]: 402 ± 13 ms
QTc interval, 4–5 h post-dose (day 1) [3, 12]: 401 ± 14 ms
QTc interval, 4–5 h post-dose (day 2) [3, 12]: 407 ± 11 ms
QTc interval, 4–5 h post-dose (day 3) [3, 12]: 400 ± 11 ms
mean QTc prolongation, females ([3]; 1,750 mg AQ-13 / 1,500 mg CQ): 12 ms
mean increase in the QTc interval from baseline ([3]; 1,750 mg AQ-13 / 1,500 mg CQ, 4 h after the second dose on day 2): 10 ms
QTc interval, Baseline ([3]; 600/700 mg AQ-13 (n = 25), 600 mg CQ (n = 24), mean ± SD): 403 ± 17 ms
QTc interval, 2 wk follow-up [3, 13]: 405 ± 18 ms
QTc interval, 4–5 h post-dose (day 1) [3, 13]: 414 ± 17 ms
maximal prolongation of the QTc interval from baseline at the individual level ([3]; 600/700 mg dose): 42 ms
maximal prolongation of the QTc interval from baseline at the individual level ([3]; 1,500/1,750 mg dose): 35 ms
mean increase in the QTc interval from baseline, females ([3]; 4 h after 600 mg CQ or 600/700 mg AQ-13): 18 ms
mean QTc interval change from baseline, males ([3]; 4 h after 600 mg CQ or 600/700 mg AQ-13, not significant): 1 ms
mean increase in the QTc interval from baseline ([3]; 4 h after 600 mg CQ or 600 or 700 mg AQ-13): 11 ms
arrhythmias or other cardiac AEs ([3]; all doses): no arrhythmias or other cardiac AEs; also recorded: no cardiac AEs
clearance in preclinical studies in comparison with CQ [4]: cleared more rapidly than CQ
oral bioavailability in comparison with CQ ([4]; rats and monkeys, GLP preclinical studies by SRI International): less than that of CQ
toxicity in animals in comparison with CQ [5]: no differences in toxicity
blood level one hour after dosing as % of Cmax ([6]; 600 mg oral dose): 52%
Cl/F ([6]; 1,750 mg oral over 3 d, median (range)): 14.0 (6.8–20.3) l/h
median oral clearance (range of medians across dose levels) ([6]; 600 and 1,500/1,750 mg doses): 14.0 to 14.7 L/h
Cmax ([6]; 1750 mg, 1,750 mg oral over 3 d (700+700+350 mg), median (range)): 3000 nM
Vd/F [6, 14]: 6660 L
MRT [6, 14]: 13.4 days
Tmax ([6]; 1750 mg, 1,750 mg oral over 3 d, median (range), read-out: Tmax): 1.14 days
half-life ([6]; 1750 mg, 1,750 mg oral over 3 d, median (range), read-out: t½ (converted)): 12.9 days
Tmax ([6]; oral, 1,750 mg AQ-13 / 1,500 mg CQ, 27–28 h after the first dose, read-out: time of peak blood concentration after the second dose): 0.125 to 0.167 days
AUC ([6]; 600 mg, single oral 600 mg dose, median (range), read-out: AUCw1 (partial AUC for week 1)): 71.8 µM·h
AUC ([6]; 600 mg, single oral 600 mg dose, median (range), read-out: AUCτ (total area under the curve)): 141 µM·h
AUC ([6]; 700 mg, single oral 700 mg adjustment dose, median (range), read-out: AUCw1): 96.3 µM·h
AUC ([6]; 700 mg, single oral 700 mg adjustment dose, median (range), read-out: AUCτ): 342 µM·h
AUC ([6]; 1750 mg, 1,750 mg oral over 3 d, median (range), read-out: AUCw1): 226 µM·h
AUC ([6]; 1750 mg, 1,750 mg oral over 3 d, median (range), read-out: AUCτ): 493 µM·h
Vd/F [6, 15]: 6710 L
Vd/F [6, 16]: 6830 L
MRT [6, 16]: 23.5 days
Tmax ([6]; single oral 700 mg adjustment dose, median (range), read-out: Tmax): 0.167 days
half-life ([6]; single oral 700 mg adjustment dose, median (range), read-out: t½ (converted)): 17.9 days
Cmax ([6]; single oral 600 mg dose (CQ base equivalent), median (range)): 1400 nM
MRT [6, 15]: 10.5 days
Tmax ([6]; single oral 600 mg dose, median (range), read-out: Tmax): 0.167 days
half-life ([6]; single oral 600 mg dose, median (range), read-out: t½ (terminal elimination half-life) (converted)): 14.3 days
Cmax [6, 16]: 1600 nM
linearity of pharmacokinetics ([6]; oral doses in healthy volunteers): linear pharmacokinetics
Cl/F (apparent oral clearance) [6, 15]: 14.7 (7.0–31.1) l/h
Cl/F [6, 16]: 11.8 (8.5–19.1) l/h
activity in vivo in monkey model ([7]; P. cynomolgi in the rhesus monkey): active in vivo
activity in monkey models of human malaria compared with AQ-21 ([7]; both monkey models, ref Cogswell, et al., unpublished data): more active
activity in vivo in monkey model [8]: active in vivo
related adverse events: None ([9]; 10 mg dose, n = 8 per drug): 0
Abdominal pain, number (%) [9, 17]: 1 (7%)
Blurred vision, number (%) [9, 17]: 2 (14%)
Diarrhea, number (%) [9, 17]: 4 (29%)
Difficulty focusing/visual floating objects, number (%) [9, 17]: 2 (14%)
Lightheadedness/Dizziness, number (%) [9, 17]: 7 (50%)
Nausea, number (%) [9, 17]: 5 (36%)
Vomiting, number (%) [9, 17]: 2 (14%)
Weakness/fatigue, number (%) [9, 17]: 2 (14%)
Headache, number (%) ([9]; 1,500 mg CQ (n = 15) / 1,750 mg AQ-13 (n = 14) over 3 d): 5 (36%)
Headache, volunteers with related AE, number (%) [9, 18]: 2 (12%)
Lightheadedness/Dizziness, number (%) [9, 18]: 0
Nausea, number (%) [9, 18]: 1 (6%)
Abdominal pain, number (%) [9, 19]: 2 (8%)
Diarrhea, number (%) [9, 19]: 2 (8%)
Ear symptoms, number (%) [9, 19]: 0
Headache, number (%) [9, 19]: 10 (40%)
Lightheadedness/Dizziness, number (%) [9, 19]: 4 (16%)
Loss of appetite, number (%) [9, 19]: 3 (12%)
Nausea, number (%) [9, 19]: 2 (8%)
Vomiting, number (%) [9, 19]: 2 (8%)
drug-related GI symptoms, number of reports ([9]; all doses combined): 28 reports
drug-related lightheadedness/dizziness, volunteers/total [9, 20]: 11/63
volunteers reporting one or more GI symptoms/total [9, 20]: 14/63
ALT in one participant with abnormal liver function tests [10, 21]: 149
AST in one participant with abnormal liver function tests [10, 21]: 135 U/l
alkaline phosphatase in one participant with abnormal liver function tests [10, 21]: 146
bilirubin in one participant with abnormal liver function test [10, 21]: 1.5 mg/dL
volunteers with mildly abnormal liver function tests ([10]; 2 wk follow-up, AQ-13 100 and 300 mg doses, CQ 1,500 mg dose): two
hematologic or chemical toxicities on repeat laboratory testing ([10]; 4 d after drug administration): no hematologic or chemical toxicities
organ toxicity ([10]; any dose tested, inpatient exams, 2 and 4 wk follow-up): No hematologic, hepatic, renal, or other organ toxicity was observed; also recorded: no clinical evidence for end-organ toxicity
